{"source": "patent US20200337297A1", "about": "“SYSTEM AND METHOD FOR CARBON MONOXIDE […] BLOOD COMPONENTS” (SAFETIN LTD., priority 2017, published 2020)", "key": {"platelets [1]": {"test_system": "platelets", "assay": "ATP quantitation in stored platelets (luminometric ATP bioluminescence kit)", "type": "cell-based, human", "experimental": "PC fractions were identically prepared from CO pretreated or untreated blood by consecutive centrifugation in a sterile environment using blood bank conditions. Bicarbonate (4% of PC volume) was then added from a stock solution of 750 mM with agitation to yield a final bicarbonate concentration of 30 mM. Next, the PC was treated with CO in a similar manner to whole blood. Alternatively, rather than applying a vacuum, the containers were flushed for 10 min. with sterile CO while agitating the containers, which were then sealed. The containers were allowed to stay at room temperature of 20-24 degree C.° PRP platelets were treated similarly.\nA luminometric ATP was measured by Veritas™ Microplate Luminometer (Tuner Biosystems) by using an ATP bioluminescence kit (CLS II) from Roche (cat No. 11 699 709 001) Mannheim Germany The assay was performed according to the manufacturer's instructions. Briefly: 50 μl of cell lysate (500000 cell per sample) or ATP standard concentration was added in advance to each well in 96 well LIA-white plate (Greiner bio one). Automatic injection of 50 μof substrate solution (luciferin and luciferase) was added to each well by the device and the luminescence was measured. ATP concentrations were calculated based on an ATP standard curve. Each sample was tested in triplicate."}, "[2]": {"test_system": "human platelets in rabbit blood circulation", "assay": "In vivo platelets viability analysis in a rabbit model", "experimental": "Female New Zealand white rabbits (2.5-3 kg) were infused with Ethyl Palmytate (EP) to inhibit the Macrophages function (Blajchman M A and Lee D H, “The thrombocytopenic rabbit bleeding time model to evaluate the in vivo hemostatic efficacy of platelets and platelet substitutes”, Transfus Med Rev 1997, 11:95-105). EP solution (10 ml) was prepared by mixing (up to homogeneity) of 2.25 ml EP with 7.75 ml of 5% dextrose containing 1% Tween-20.\n[…] Blood samples at time intervals were analyzed by flow cytometry with FITC labeled anti-CD42a for the presence of human platelets (Rothwell S W, Maglasang P et al., “Survival of fresh human platelets in a rabbit model as traced by flow cytometry”, Transfusion 1998, 38:550-556; Leytin V, Allen D J et al., “A rabbit model for monitoring in vivo viability of human platelet concentrates using flow cytometry”, Transfusion 2002, 42:711-718). 100% represented the total number of normalized human platelet in rabbit circulation after 30 min from the injection."}, "platelets [3]": {"test_system": "platelets", "assay": "Analysis of phosphatidylserine (PS) exposure by FACS (AnnexinV-FITC)", "type": "cell-based, human", "experimental": "PS exposure was measured by FACS analysis of bound AnnexinV-FITC using 488 nm for excitation and 530 nm for emission. (Shapira S, Friedman Z et al., “The effect of storage on the expression of platelet membrane phosphatidylserine and the subsequent impact on the coagulant function of stored platelets”, Transfusion 2000, 40:1257-1263)"}}}
{"smiles": "[C-]#[O+]", "note": "[COatm, carbon monoxide]", "values": [{"measurement": "ATP level relative to the initial value of the ATP of air preserved platelets", "setting": "platelets [1]; 5 days COatm storage, then overnight re-aeration", "result": 74, "unit": "%"}, {"measurement": "ATP level relative to the level in fresh PC", "setting": "platelets [1]; platelets stored as PC 5 days under anaerobic COatm", "result": 28, "unit": "%"}, {"measurement": "time dependent survival of stored human platelets in rabbit blood circulation", "setting": "[2]; 7 days stored, COatm vs air-stored (FIG. 5)", "result": "survive longer in vivo than air-stored platelets"}, {"measurement": "survival of stored platelets in rabbit blood circulation", "setting": "[2]; Plt preserved for 9 days, COatm vs air (FIG. 5)", "result": "survived for longer in blood circulation"}, {"measurement": "PS exposure after transfer to air", "setting": "platelets [3]; 9 days COatm-stored, then re-aerated (FIG. 6d)", "result": "another fraction returned to very low PS exposure"}, {"measurement": "PS exposure, change during extended storage", "setting": "platelets [3]; extended storage under COatm up to 9 days", "result": "no further changes"}, {"measurement": "PS exposure", "setting": "platelets [3]; several hours of storage under COatm (FIG. 6b)", "result": "most cells are PS-exposed"}]}
